Data taken from patent US8569335B2, “Compounds derived from taurine, process of their preparation and pharmaceutical compositions containing these” (EMS S.A., priority 2008, dated 2013).
Read-outs that look alike come from different tables or passages of the source.

Tests used:
iNOS = target: T1, iNOS (Homo sapiens, UniProt P35228); experiment: nitric oxide production by macrophages stimulated with LPS, indirect nitrite (NO2-) detection; format: cell-based; settings: 24 hours
T1 construct: The assay used the maximum production of nitric oxide (macrophages stimulated with LPS); endogenous in cells
T1 sequence (P35228 whole entry, species assumed): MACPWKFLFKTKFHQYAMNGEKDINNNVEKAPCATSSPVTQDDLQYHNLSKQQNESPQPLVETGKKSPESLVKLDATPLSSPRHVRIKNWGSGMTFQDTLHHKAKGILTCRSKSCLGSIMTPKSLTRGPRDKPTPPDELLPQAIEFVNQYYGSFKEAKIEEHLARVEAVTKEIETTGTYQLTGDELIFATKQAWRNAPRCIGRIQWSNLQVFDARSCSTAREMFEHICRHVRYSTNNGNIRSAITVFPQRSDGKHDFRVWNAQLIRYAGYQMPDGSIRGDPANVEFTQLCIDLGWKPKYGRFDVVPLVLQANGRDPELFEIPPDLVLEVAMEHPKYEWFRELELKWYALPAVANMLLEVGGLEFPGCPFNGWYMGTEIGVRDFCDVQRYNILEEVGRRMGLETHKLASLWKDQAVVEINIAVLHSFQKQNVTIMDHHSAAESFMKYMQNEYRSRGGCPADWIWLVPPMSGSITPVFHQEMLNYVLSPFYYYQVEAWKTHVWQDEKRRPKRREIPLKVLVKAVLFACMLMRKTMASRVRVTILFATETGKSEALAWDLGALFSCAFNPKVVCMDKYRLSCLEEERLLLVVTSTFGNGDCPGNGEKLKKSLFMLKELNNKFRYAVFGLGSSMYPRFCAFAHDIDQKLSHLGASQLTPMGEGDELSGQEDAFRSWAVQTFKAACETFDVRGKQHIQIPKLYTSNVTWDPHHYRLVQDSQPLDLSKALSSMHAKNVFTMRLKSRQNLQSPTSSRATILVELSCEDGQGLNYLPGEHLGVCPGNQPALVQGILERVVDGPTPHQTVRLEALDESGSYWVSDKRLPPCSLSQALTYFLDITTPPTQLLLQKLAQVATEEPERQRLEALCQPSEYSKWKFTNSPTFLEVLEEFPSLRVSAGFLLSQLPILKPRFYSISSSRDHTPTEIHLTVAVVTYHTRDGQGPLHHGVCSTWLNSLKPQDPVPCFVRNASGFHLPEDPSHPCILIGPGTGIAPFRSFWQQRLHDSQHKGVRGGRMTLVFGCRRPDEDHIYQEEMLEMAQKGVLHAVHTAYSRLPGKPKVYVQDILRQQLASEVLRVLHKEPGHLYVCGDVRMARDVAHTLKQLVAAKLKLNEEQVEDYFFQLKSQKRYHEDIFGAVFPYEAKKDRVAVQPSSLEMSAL

gastric mucous membrane = experiment: Gastric ulcerogenesis (gastric ulcerogenesis index, G.U.I.); format: in vivo; settings: for alterations / color of the gastric mucous membrane: same animals as paw's edema model; for lesion index (gastric ulcerogenesis index): stomach 6 hours after paw readings, macroscopic and microscopic (640x)
Method: Gastric ulcerogenesis was verified in the same animals of the groups used for the model of paw's edema.
After 6 hours of the paw's measurement readings, the animals were subjected to euthanasia in CO2, and had their stomach removed, cut open in the longitudinal axis and washed with saline solution. In all experiments, the groups were composed of 6 animals, being kept the desired therapeutic activity, with absence of gastric lesions, and after the LD50 assays, it was concluded that the taurine derived compounds of the present invention are safe. It is worth observing, still, that other organs, such as lungs and intestine, as well as the macroscopic integrity of the other organs were kept preserved.
Through mucous membrane exposition, it was observed its color and integrity. In the case of lesions existence, they were counted and measured, according to the gastric ulcerogenesis index (G.U.I.) that follows numeric criteria for classification of lesions of the gastric mucous membrane: (lesions<1 mm=1; […]; 2.5 to 3.5 mm=3; 3.5 to 4.5 mm=4 and >4.5 mm=5). The obtained results were reported as averages±E. P. M. The results of the lesion experiment regarding the administration of the compounds of the present invention (embodiments corresponding to the Examples 1, 2 and 3) were neither macroscopically nor microscopically (640×) observed, being reported as lesion index of 0 (zero) value.

Wistar rat paw's edema = Wistar rat paw's edema induced by carragenin; format: in vivo; settings: oral; dosage of 44 mg/kg (example 2), 130 mg/Kg (example 3), 182 mg/Kg (example 1)
Method: 14, p. 2589-99, 2006); ÖZTÜRK, G. et al. (ÖZTÜRK, G. et al. “New analgesic and antiinflammatory agents 4(1H)-pyridinone derivatives”, Europe Journal Medicinal Chemistry, v. 37, n. 10 p. 829-34, 2002); LOLLI, et al. (LOLLI, et al. “A new class of ibuprofen derivatives with reduced gastrotoxicity”, Journal of Medicinal Chemistry, v. 44, p. 3463-68, 2001). Besides these, a paw's edema test was performed using taurine as control of its derived compounds, in the dosage of 10 mg/Kg according to HIRATA, T. et al. (HIRATA, T. et al. “Cyclo-oxygenase isozymes in mucosal ulcergenic and functional responses following barrier disruption in rat stomachs”, British Journal of Pharmacology, v. 122, p. 447-54, 1997).
In order to confirm the biological activity of the compounds of the present invention, tests were performed according to the pharmacological model of Wistar rat paw's edema using groups of six animals. It was verified that, in the reported concentrations, in the presence of equimolar dosages of the compounds described in the articles above-mentioned, such as referral drugs, a reduction of the inflammatory process with the use of the compounds of the invention was observed.
The compounds of the present invention were administered 1 (one) hour prior the inoculation of the irritant agent carragenin in the paws of the animals, with the aid of a gavage tube, orally, using water as solvent.
The control group had the irritant agent carragenin applied to the bottom of their posterior paws and, orally, saline solution. […] Other groups of animals had the taurine derived of the present invention (embodiments corresponding to Examples 1, 2 and 3, respectively—orally) administered 60 minutes prior to the carragenin (bottom of the paw).
The posterior paws were measured prior to the treatments and at each hour, for 6 hours after the carragenin was administered, using an thickness meter, in order to measure their volume (in mm). The results were expressed by the difference between the paw's measurement readings before and after the treatments.

Wistar female rats = settings: for survival: dosage of 1,000 mg/Kg
Method: Wistar female rats weighting between 200 and 250 g were used. […] To all studied groups, dosages of 1,000 and, alternatively, of 1,500 mg/kg were administered by gavage feeding.
After fourteen (14) days of administration and observation regarding the toxicity signs of general kind, effects on motion, behavior, breathing, number of deaths and form of occurrence, the animals that have survived were subjected to euthanasia in CO2 and had their organs such as heart, lungs, kidney, liver and stomach removed and weighted. For the analysis of the results were also considered the body weights.

[1] = oral administration; literature (Merck Index); cited from earlier work
[2] = system: isolated gastric mucosal cells; settings: cited from earlier work
gastric mucosal injury = settings: rats pre-treated intragastrically with 250 or 500 mg/kg 1 to 3 days before 25 mg/kg indometacin; cited from earlier work
gastric ulceration = settings: pre clinic tests; cited from earlier work

With N=C(N)NN [aminoguanidine] the “inhibition of nitric oxide production (NOS inhibition activity)” value (iNOS) was “total inhibition of nitric oxide production”.
With CC(C)Cc1ccc(C(C)C(=O)O)cc1 (stereo not shown) [ibuprophen, reference compound] the “alterations / color of the gastric mucous membrane” value (shortened to “alterations / color”) (gastric mucous membrane) was “color alteration of the mucous membrane”.
With CC(C)Cc1ccc(C(C)C(=O)NCCS(=O)(=O)[O-])cc1.[Na+] (stereo not shown) [Compound 27, [2-(4-isobuthylphenyl)propanoyl]amide ethanesulfonic acid] the “anti inflammatory activity in paw's edema” value (Wistar rat paw's edema) was “anti inflammatory activity”, the deaths (Wistar female rats; any of the tested dosages (1,000 and 1,500 mg/kg), gavage) was “no death in any of the tested dosages” and the “alterations / color” value (gastric mucous membrane) was “did not present any color alteration in the mucous membrane”. The “alterations / color” value (gastric mucous membrane; listed as Example 1) was “not observed alterations in the mucous membrane”, the “lesion index (gastric ulcerogenesis index)” value (shortened to “lesion index”) (gastric mucous membrane) was 0 and the LD50 [1] was 1,050 mg/Kg.
For COc1ccc2c(c1)c(CC(=O)NCCS(=O)(=O)[O-])c(C)n2C(=O)c1ccc(Cl)cc1.[Na+] [Compound 64], the “anti inflammatory activity in paw's edema” value (Wistar rat paw's edema) was “anti inflammatory activity”, the “weight of the organs (kidney, heart and liver) versus control animals” value (Wistar female rats; after the toxicity assay, 14 days) was “substantially close of those obtained with the control animals” and the survival (Wistar female rats; gavage) was “no animal has died”. For the same compound, the population survived (Wistar female rats; dosage of 1,500 mg/Kg, gavage) was 66%, the “alterations / color” value (gastric mucous membrane) was “not observed alterations in the mucous membrane” and the “lesion index” value (gastric mucous membrane) was 0.
For NCCS(=O)(=O)O [taurine, 2-aminoethanesulfonic acid], the “increase of cellular resistance” value [2] is given as 21% and the hemorrhagic gastric lesion (gastric mucosal injury) is given as “lesion reduction”.
For COC(=O)[C@@H](N)CCCNC(=N)N[N+](=O)[O-] [L-NAME, N^G-nitro-L-arginine methyl esther], the “change in gastric acidity” value (gastric ulceration) is listed as “does not affect gastric acidity”, the lesion rate (gastric ulceration) is listed as “doubles” and the “reduction of nitric oxide (measured as nitrite)” value (gastric ulceration) is listed as 50%.
With COc1ccc2cc(C(C)C(=O)NCCS(=O)(=O)[O-])ccc2c1.[Na+] (stereo not shown) [Compound 63, 2-{[2-(6-methoxy-2-naphthyl)propanoyl]amide}ethanesulfonic acid] the “anti inflammatory activity in paw's edema” value (Wistar rat paw's edema) was “anti inflammatory activity”, the survival (Wistar female rats; gavage) was “all animals survived” and the deaths (Wistar female rats; dosage of 1,500 mg/Kg, gavage) was 17%. For the same compound, the “alterations / color” value (gastric mucous membrane) was “not observed alterations in the mucous membrane”, the “lesion index” value (gastric mucous membrane) was 0 and the LD50 [1] was 1,234 mg/Kg.
